# Results taken from patent US10816541B2, “Method for predicting side effect of whitening ingredient” (AMOREPACIFIC CORPORATION, priority 2015, dated 2020).
# “Also recorded” adds a separate entry of the source. Like-named read-outs stand apart in the source and are kept apart here.
# How the values were obtained:
# [1] = system: A375 cells; test: Cytotoxic concentration for A375 cells depending on treatment time (CCK-8, Test Example 1-2); format: cell-based, human; settings: for Change in cytotoxicity after removal of the samples: A375 cells treated for a day, then cultured further for 2 days after removing the samples; for CC20 / CC50: A375 cells
# Experimental: (§1) The A375 (human melanoma cell line) cells were purchased from the ATCC (Cat. No. CRL-1619, USA). As a cell culture medium, DMEM (Cat. No. 12-604, Lonza, USA) supplemented with 10% FBS (Cat. No. 16000-044, Gibco, USA) was used. Subculturing and cytotoxicity test were conducted in the same manner as for the HEM cells.
# (§2) Cytotoxicity was measured with Cell Counting Kit-8 (CCK-8) manufactured by Dojindo Molecular Technologies (USA). After removing the medium from the 96-well plate, 200 μL of 10% CCK-8 in the same medium was added to each well. After incubation at 37° C. for about 2 hours, absorbance of 100 μL of the medium was measured at 450 nm using an ELISA reader. As the cells […], the color of CCK-8 shifts to longer wavelength from colorless to orange color.
# (§3) Cell survivability was calculated according to Equation 1. Cell survivability (%)={(Asample−Ab)/(Ac−Ab)}×100 [Equation 1]
# (§4) The cytotoxicity of the whitening ingredients for A375 (human melanoma cell line, Cat. No. CRL-1619) cells with different treatment time was investigated. The toxicity was measured for 3 different sample treatment conditions. The cytotoxicity was measured after treating with the whitening ingredients for 24 hours, after treating with the samples for 24 hours and 48 hours later after exchanging with fresh media, and after treating with the samples for 72 hours without exchange of media. The result is shown as graphs (FIG. 3). Based on the measurement result, CC20 and CC50 were calculated for the whitening ingredients and treatment time. Then, the ratio of the cytotoxic concentration on day 3 as compared to day 1 was calculated (Table 3).
# [2] = as above; format: cell-based, human; settings: human, A375 cells (melanoma cell line), A375 cells; for CC50 at 24 hours: Day 1 (24 hours); for CC50 at 3 days: Day 3
# Experimental: as §1, §2, §3, §4
# [3] = system: HEMn-MP cells; test: Inhibition of melanin production in HEMn-MP cells and correlation factor with cytotoxic concentration (Test Example 2); format: cell-based, human; settings: for CC20/EC50 / EC50 / CC50/EC50: HEMn-MP cells, day 7; for CC20/EC50: 20% cytotoxic concentration divided by EC50 of melanin production; for EC50: read-out: EC50 (50% inhibitory concentration of melanin synthesis); for CC50/EC50: 50% cytotoxic concentration divided by EC50 of melanin production
# Experimental: The inhibitory effect of melanin production of the whitening ingredients for HEMn-MP cells was investigated. After treating the cells with the samples at concentrations shown in Table 4 and culturing for 7 days, the amount of melanin was measured as compared to a control group (0.5% DMSO) (FIG. 4). Also, EC50 (50% effective inhibitory concentration of melanin production) was calculated for the whitening ingredients (Table 5). Then, CC20 or CC50 was divided by EC50 to investigate the correlation factor (difference) between the cytotoxicity and the effective inhibitory concentration of melanin production (Table 6).
# Table 6 compares the correlation factor between the cytotoxic concentration (CC50) and the inhibitory concentration of melanin synthesis (EC50) of the whitening ingredients on day 7. CC20/EC50 is the value obtained by dividing the 20% cytotoxic concentration by the 50% effective inhibitory concentration of melanin production and represents the correlation factor of the 20% cytotoxic concentration and the effective concentration. CC50/EC50 is the value obtained by dividing the 50% cytotoxic concentration by the 50% effective inhibitory concentration of melanin production and represents the correlation factor of the 50% cytotoxic concentration and the effective concentration.
# [4] = system: HEMn-MP cells; test: Cytotoxicity for HEMn-MP cells with or without UVB radiation (Test Example 3); format: cell-based, human; settings: UVB 20 mJ/cm^3 irradiated vs unirradiated HEMn-MP cells, day 7
# Source text: In order to investigate the effect of UVB radiation on the cytotoxicity of the whitening ingredients, cytotoxicity was compared for groups treated with the whitening ingredients without UVB radiation and groups irradiated with UVB at […] and then treated with the whitening ingredients (FIG. 5). That is to say, the response of the cells excited by UVB radiation to various whitening ingredients was investigated. After irradiating the cells with UVB and treating the cells with the samples, increase in cytotoxicity was determined and the ratio of cytotoxicity as compared to before the treatment was calculated (Table 7).
# The ratio (%) of toxicity for the UVB-irradiated cells as compared to UVB-unirradiated cells was determined at representative concentrations (3 points) for each whitening ingredient. The ratio was corrected for the cytotoxicity of the control group (15-20%).
# [5] = system: HEMn-MP cells; test: Cytotoxic concentration for HEMn-MP cells depending on treatment time (CCK-8, Test Example 1-1); format: cell-based, human
# Experimental: (§5) The HEMn-MP (human epidermal melanocytes, neonatal, moderately pigmented donor, Cat. No. C-102-5C) cells were purchased from Life Technologies (USA). As a cell culture medium, medium 254 (Cat. No. M-254-500) supplemented with HMGS (Cat. No. S-002-5) was used. The cells were cultured according to the manufacturer's manual and cells during passages 3-8 were used. To summarize, the cells were cultured on a 175 T flask in a 5% CO2 incubator at 37° C. During subculturing, the cells were separated using 0.05% trypsin-EDTA, collected by centrifugation (1200 rpm, 5 minutes) and cultured after seeding to 5×10^3 cells/cm^2. For cytotoxicity test, the cells were seeded onto a 96-well plate with 2×10^4 cells/well, cultured for a day and treated with each substance at 200 μL/well. Then, cytotoxicity was measured after a predetermined time.
# as §2, §3
# (§6) In order to determine the cytotoxic concentration of the whitening ingredients for HEMn-MP (human epidermal melanocytes, neonatal, moderately pigmented donor, Cat. No. C-102-5C) cells, cell survivability (% cell survival rate) was measured as compared to a control group (0.5% DMSO) on days 1 and 7 after treatment with each whitening ingredient at the concentration described in Table 1 (FIG. 2). Based on the measurement result, CC20 and CC50 were calculated for the whitening ingredients and treatment time. Then, the ratio of the cytotoxic concentration on day 7 as compared to day 1 was calculated (Table 2).
# [6] = as above; format: cell-based, human; settings: human, HEMn-MP cells (human epidermal melanocytes); for CC50 at 1 day: Day 1; for CC50 at 7 days: Day 7
# Experimental: as §5, §2, §3, §6
# [7] = consumers of commercialized skin whitening products, cited from earlier work
Structure (SMILES),Change in cytotoxicity after removal of the samples [1],CC20 ([1]; Day 1 (24 hours)),CC20 ([1]; Day 3),CC50 at 24 hours [2],CC50 at 3 days [2],CC20/EC50 [3],"EC50 ([3]; Homo sapiens, 168 h)",CC20 ([5]; Day 1),CC20 ([5]; Day 7),CC50 at 1 day [6],CC50 at 7 days [6],Clinical side effect reported by users [7],CC50/EC50 [3],Ratio of cytotoxicity ([4]; 1.25 mM),Ratio of cytotoxicity ([4]; 2.5 mM),other results
"COc1cc(OC)c(C23CC4CC(CC(C4)C2)C3)cc1C(=O)NCc1ccc(O)cc1O [AP, 5-adamantan-1-yl-N-(2,4-dihydroxybenzyl)-2,4-dimethoxy-benzoic acid amide]",no more increase in cytotoxicity,25.5 ± 0.8 µM,17.2 ± 0.09 µM,33.8 ± 0.7 µM,19.99 ± 0.06 µM,11.8 Fold,0.11 ± 0.01 µM,3.3 ± 0.4 µM,1.3 ± 0.0 µM,5.4 ± 0.3 µM,2.5 µM,–,–,–,–,Inhibitory effect of melanin production by melanocytes ([3]; Test Example 2): excellent inhibitory effect of melanin production; Ratio of cytotoxicity ([4]; 0.39 μM): 2%; Ratio of cytotoxicity ([4]; 0.78 μM): 14%; Ratio of cytotoxicity ([4]; 1.56 μM): 0%
"Oc1ccc(OCc2ccccc2)cc1 [MB, 4-benzyloxy-phenol]",continuously increased toxicity,119.8 ± 4.7 µM,2.31 ± 0.07 µM,295 ± 7.2 µM,7.19 ± 0.14 µM,1.3 Fold,6.8 ± 2.5 µM,178.2 ± 21.6 µM,8.9 ± 0.4 µM,284 ± 28.2 µM,19 ± 0.7 µM,leukoderma-like side effects,2.8 Fold,–,–,–
"CCCCc1ccc(O)cc1O [RC, 4-butylresorcinol]",no more increase in cytotoxicity,313.9 ± 10.6 µM,52.73 ± 4.67 µM,508 ± 11.3 µM,122 ± 11 µM,>20 Fold,2.7 ± 0.6 µM,170.2 ± 15.9 µM,69.7 ± 6.1 µM,347 ± 12.7 µM,284 ± 20.4 µM,–,–,–,–,Clinical side effect reported by users ([7]; listed as rucinol): no clinical side effect has been reported; also recorded: no clinical problem has been reported; Ratio of cytotoxicity ([4]; 31.25 μM): 0%; Ratio of cytotoxicity ([4]; 62.5 μM): 0%; Ratio of cytotoxicity ([4]; 125 μM): 0%
"C[C@@H](O)CCc1ccc(O)cc1 [RD, rhododenol]",continuously increased toxicity,4200 ± 200 µM,190 ± 10 µM,–,–,0.8 Fold,–,7100 ± 800 µM,1000 ± 0 µM,–,–,leukoderma-like side effects; also recorded: leukoderma-like symptoms,2.1 Fold,24%,27%,CC50 ([1]; Day 1 (24 hours)): 8400 ± 200 µM; CC50 ([1]; Day 3): 500 ± 20 µM; EC50 [3]: 1130 ± 160 µM; Ratio of cytotoxicity ([4]; 5 mM): 15%; CC50 ([5]; Day 1): 10800 ± 700 µM; CC50 ([5]; Day 7): 2400 ± 100 µM
"CC(=O)CCc1ccc(O)cc1 [RK, raspberry ketone]",continuously increased toxicity,6700 ± 100 µM,240 ± 20 µM,10700 ± 100 µM,790 ± 40 µM,0.4 Fold,970 ± 90 µM,6500 ± 200 µM,400 ± 100 µM,10400 ± 200 µM,1400 ± 400 µM,leukoderma-like side effects,1.4 Fold,8%,26%,Ratio of cytotoxicity ([4]; 0.625 mM): 19%
